Source: ChEMBL document CHEMBL1201862, “PubChem BioAssay data set” (2004)
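Protocol summary: plate cells (96-well), add compound at 5 concentrations, incubate 48 h, interpolate endpoints linearly. The concentration for 50% growth inhibition is given as GI50.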 The source made the active and inactive calls. No stated cut-off is given here; in the data, active = GI50 up to about 1.1 µM and inactive = higher.

How the values were obtained:
Experiment in all cases: NCI-60 cell line screen, 48 h
ACHN = tested on: ACHN
BT-549 = tested on: BT-549
CCRF-CEM = tested on: CCRF-CEM
COLO 205 = tested on: COLO 205
EKVX = tested on: EKVX
HL-60 = tested on: HL-60
IGROV-1 = tested on: IGROV-1
M14 = tested on: M14
MDA-MB-435 = tested on: MDA-MB-435
NCI-H226 = tested on: NCI-H226
NCI-H522 = tested on: NCI-H522
OVCAR-5 = tested on: OVCAR-5
SF-268 = tested on: SF-268
SK-MEL-28 = tested on: SK-MEL-28
SK-MEL-5 = tested on: SK-MEL-5
SN12C = tested on: SN12C
SNB-75 = tested on: SNB-75
SW-620 = tested on: SW-620
TK-10 = tested on: TK-10
UACC-257 = tested on: UACC-257

SMILES	GI50 (ACHN)	GI50 (BT-549)	GI50 (CCRF-CEM)	GI50 (COLO 205)	GI50 (EKVX)	GI50 (HL-60)	GI50 (IGROV-1)	GI50 (M14)	GI50 (MDA-MB-435)	GI50 (NCI-H226)	GI50 (NCI-H522)	GI50 (OVCAR-5)	GI50 (SF-268)	GI50 (SK-MEL-28)	GI50 (SK-MEL-5)	GI50 (SN12C)	GI50 (SNB-75)	GI50 (SW-620)	GI50 (TK-10)	GI50 (UACC-257)
Cc1ccc(S(=O)(=O)Oc2nc3ccccc3nc2N(S(=O)(=O)c2ccc(C)cc2)S(=O)(=O)c2ccc(C)cc2)cc1	45.9 µM (inactive)	90.6 µM (inactive)	50.1 µM (inactive)	> 100 µM (inactive)	30.3 µM (inactive)	33 µM (inactive)	92.3 µM (inactive)	76.6 µM (inactive)	35.8 µM (inactive)	22.5 µM (inactive)	74 µM (inactive)	33 µM (inactive)	50.6 µM (inactive)	55.6 µM (inactive)	47.9 µM (inactive)	44 µM (inactive)	37.2 µM (inactive)	34.8 µM (inactive)	39.8 µM (inactive)	61.1 µM (inactive)
COc1c(Cl)ccc(Cl)c1C(=O)NNC(=O)c1c(Cl)c(Cl)c(Cl)c(Cl)c1-c1nc2cc(C(=O)c3ccccc3)ccc2[nH]1	37.5 µM (inactive)	67.3 µM (inactive)	28.8 µM (inactive)	47.4 µM (inactive)	36.8 µM (inactive)	50.5 µM (inactive)	31 µM (inactive)	52.6 µM (inactive)	42.9 µM (inactive)	45.6 µM (inactive)	33.1 µM (inactive)	> 100 µM (inactive)	34.3 µM (inactive)	84.7 µM (inactive)	25.2 µM (inactive)	70.8 µM (inactive)	> 100 µM (inactive)	> 100 µM (inactive)	72.3 µM (inactive)	76.6 µM (inactive)
COc1ccc(C2c3c(-c4ccccc4)nn(-c4ccccc4)c3Oc3ncn(N)c(=N)c32)cc1OC (stereo not given)	1.86 µM (inactive)	4.74 µM (inactive)	2.56 µM (inactive)	2.23 µM (inactive)	1.91 µM (inactive)	2.62 µM (inactive)	1.51 µM (inactive)	2.04 µM (inactive)	1.85 µM (inactive)	2.46 µM (inactive)	2.21 µM (inactive)	3.9 µM (inactive)	3.03 µM (inactive)	2 µM (inactive)	1.94 µM (inactive)	2.51 µM (inactive)	1.62 µM (inactive)	2.9 µM (inactive)	1.95 µM (inactive)	1.95 µM (inactive)
O=C1c2ccccc2-[n+]2ccc3c([nH]c4ccccc43)c21 [FASCAPLYSIN CHLORIDE]	0.557 µM (active)	2.26 µM (inactive)	0.337 µM (active)	0.21 µM (active)	0.274 µM (active)	0.404 µM (active)	0.196 µM (active)	0.159 µM (active)	0.179 µM (active)	0.964 µM (active)	0.49 µM (active)	0.48 µM (active)	0.247 µM (active)	0.34 µM (active)	0.14 µM (active)	0.231 µM (active)	0.452 µM (active)	0.296 µM (active)	1.14 µM (inactive)	0.327 µM (active)
CCCOC(=O)c1cc(O)c(O)c(O)c1 [PROPYL GALLATE]	46.2 µM (inactive)	43.8 µM (inactive)	> 100 µM (inactive)	> 100 µM (inactive)	27.7 µM (inactive)	> 100 µM (inactive)	31.3 µM (inactive)	20.8 µM (inactive)	19.3 µM (inactive)	17.7 µM (inactive)	8.2 µM (inactive)	49.9 µM (inactive)	27.7 µM (inactive)	43.8 µM (inactive)	59.3 µM (inactive)	22.4 µM (inactive)	40.3 µM (inactive)	51.3 µM (inactive)	> 100 µM (inactive)	> 100 µM (inactive)
